pIC50, pKd, pKi: −log10 of the molar value.
Legend:
[1] = target: T1, Peptidyl-prolyl cis-trans isomerase A (Homo sapiens, UniProt P62937); assay: Inhibition of PPIA (unknown origin) using N-succinyl-Ala-Ala-Pro-Phe-p-nitroanilide as substrate preincubated for 1 hr followed by substrate addition measured for 6 mins by absorbance based assay
[2] = target: T1, Peptidyl-prolyl cis-trans isomerase A; assay: Inhibition of PPIA (unknown origin)
SW480 = assay: Antiproliferative activity against human SW480 cells assessed as inhibition of cell viability incubated for 48 hrs by CCK8 assay; assay type: functional, cell-based; details: SW480, 48 h
MCF7 = assay: Antiproliferative activity against human MCF7 cells assessed as inhibition of cell viability incubated for 48 hrs by CCK8 assay; assay type: functional, cell-based; details: MCF7, 48 h
PANC-1 = assay: Antiproliferative activity against human PANC-1 cells assessed as inhibition of cell viability incubated for 48 hrs by CCK8 assay; assay type: functional, cell-based; details: PANC-1, 48 h
CT26 = assay: Antiproliferative activity against mouse CT26 cells assessed as inhibition of cell viability incubated for 48 hrs by CCK8 assay; assay type: functional, cell-based; details: CT26, 48 h
HeLa = assay: Antiproliferative activity against human HeLa cells assessed as inhibition of cell viability incubated for 48 hrs by CCK8 assay; assay type: functional, cell-based
HepG2 = assay: Antiproliferative activity against human HepG2 cells assessed as inhibition of cell viability incubated for 48 hrs by CCK8 assay; assay type: functional, cell-based; details: HepG2, 48 h
HCT-116 = assay: Antiproliferative activity against human HCT-116 cells assessed as inhibition of cell viability incubated for 48 hrs by CCK8 assay; assay type: functional, cell-based; details: HCT-116, 48 h
[3] = target: T1, Peptidyl-prolyl cis-trans isomerase A; assay: Binding affinity to PPIA (unknown origin) assessed as dissociation constant
[4] = Toxicity in BALB/c mouse implanted with mouse CT26 cells assessed as histopathological change in liver at 45 mg/kg, ip qd treated for 14 days by H and E staining based analysis; assay type: organism-based; details: in vivo, 336 h, time 14 day
[5] = Toxicity in BALB/c mouse implanted with mouse CT26 cells assessed as histopathological change in heart at 45 mg/kg, ip qd treated for 14 days by H and E staining based analysis; assay type: organism-based; details: in vivo, 336 h, time 14 day
[6] = Toxicity in BALB/c mouse implanted with mouse CT26 cells assessed as change in body weight at 45 mg/kg, ip qd treated for 14 days; assay type: organism-based; details: in vivo, 336 h, time 14 day
[7] = Toxicity in BALB/c mouse implanted with mouse CT26 cells assessed as histopathological change in spleen at 45 mg/kg, ip qd treated for 14 days by H and E staining based analysis; assay type: organism-based; details: in vivo, 336 h, time 14 day
[8] = Toxicity in BALB/c mouse implanted with mouse CT26 cells assessed as histopathological change in lung at 45 mg/kg, ip qd treated for 14 days by H and E staining based analysis; assay type: organism-based; details: in vivo, 336 h, time 14 day
[9] = Toxicity in BALB/c mouse implanted with mouse CT26 cells assessed as histopathological change in kidney at 45 mg/kg, ip qd treated for 14 days by H and E staining based analysis; assay type: organism-based; details: in vivo, 336 h, time 14 day

T1 sequence (P62937 whole entry): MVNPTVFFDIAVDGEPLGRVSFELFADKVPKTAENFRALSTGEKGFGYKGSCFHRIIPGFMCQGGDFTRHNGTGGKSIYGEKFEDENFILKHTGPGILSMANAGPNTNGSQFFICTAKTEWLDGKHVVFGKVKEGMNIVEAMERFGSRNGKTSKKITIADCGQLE

CC[C@H]1C[C@H](C)[C@@]2(NC1=O)O[C@@H](C[C@H](O)[C@@H](C)CC/C=C/C=C(\C)[C@@H]1C/C=C/C=C/[C@H](O)[C@H](C)[C@@H](O)[C@@H](CCC(C)=O)C(=O)N[C@@H](C(C)C)C(=O)N[C@@H](Cc3cc(O)cc(F)c3)C(=O)N3CCC[C@H](N3)C(=O)O1)[C@H](C)[C@H](O)[C@@H]2C
pIC50 [1]: 9.31

C.CC[C@@H]1NC(=O)[C@H]([C@H](O)[C@H](C)CCCCCCNC(C)=O)N(C)C(=O)[C@H](C(C)C)N(C)C(=O)[C@H](CC(C)C)N(C)C(=O)[C@H](CC(C)C)N(C)C(=O)[C@@H](C)NC(=O)[C@H](C)NC(=O)[C@H](CC(C)C)N(C)C(=O)[C@H](C(C)C)NC(=O)[C@H](CC(C)C)N(C)C(=O)[C@@H](C)N(C)C1=O
pKi [2]: 8.60

C=C(C(=O)OC)N1c2nc(Cl)nc(Cl)c2N2C(c3ccccc3Cl)OC(C(=O)OCC)(C(=O)OCC)C12 (racemic)
pIC50 (SW480): 5.27 | pIC50 (MCF7): 5.72 | pIC50 (PANC-1): 5.35 | pIC50 (CT26): 5.95 | pIC50 (HeLa): 6.05 | pIC50 (HepG2): 5.49 | pIC50 (HCT-116): 6.17

C=C(C(=O)OC)N1c2nc(Cl)nc(Cl)c2N2C(c3ccccc3Br)OC(C(=O)OCC)(C(=O)OCC)C12 (racemic)
pIC50 (SW480): 5.16 | pIC50 (MCF7): 5.46 | pIC50 (PANC-1): 5.34 | pIC50 (CT26): 5.60 | pIC50 (HeLa): 5.67 | pIC50 (HepG2): 5.31 | pIC50 (HCT-116): 5.51

C/C=C/C[C@@H](C)[C@@H](O)[C@H]1C(=O)N[C@@H](CC)C(=O)N(C)[C@H](C)C(=O)N(CC)[C@@H](C(C)C)C(=O)N[C@@H](C(C)C)C(=O)N(C)[C@@H](CC(C)C)C(=O)N[C@@H](C)C(=O)N[C@H](C)C(=O)N(C)[C@@H](CC(C)C)C(=O)N(C)[C@@H](CC(C)C)C(=O)N(C)[C@@H](C(C)C)C(=O)N1C [ALISPORIVIR]
pKd [3]: 8.10

O=c1[nH]cc(F)c(=O)[nH]1 [FLUOROURACIL]
pIC50 (SW480): 4.85 | Activity [4]: Non-toxic | pIC50 (PANC-1): 4.83 | pIC50 (CT26): 5.47 | Activity [5]: Non-toxic | Activity [6]: Toxic | Activity [7]: Non-toxic | pIC50 (HeLa): 5.35 | pIC50 (HepG2): 4.66 | Activity [8]: Non-toxic | Activity [9]: Non-toxic

Source: ChEMBL document CHEMBL6103618, “Discovery of Novel Oxazolo[4,3-f]purine Derivatives as Antitumor Agents through PPIA Interaction” (J Med Chem, 2025)
